Source: the NIST ThermoML archive (doi:10.1021/je500936y)

Key:
[1] = xn = mol fraction of the nth substance listed; details: 100 kPa, Liquid; for speed of sound: Frequency=3 MHz, Sing-around technique in a fixed-path interferometer; for mass density: Vibrating tube method
[2] = refractive index (Na D-line) (dimensionless); xn = mol fraction of the nth substance listed; details: 100 kPa, Liquid, Standard Abbe refractometry

C=CN1CCCC1=O [N-vinylpyrrolidone] + CCCCn1cc[n+](C)c1.F[B-](F)(F)F
Details | mass density, [1] [kg/m3] | refractive index, [2] | speed of sound, [1] [m/s]
298.15 K, x2 = 0 | 1039.36 | 1.51119 | 1521.5
298.15 K, x2 = 0.1046 | 1069.96 | 1.4987 | 1537.3
298.15 K, x2 = 0.2035 | 1093.11 | 1.48698 | 1546
298.15 K, x2 = 0.3042 | 1113.53 | 1.47636 | 1552.7
298.15 K, x2 = 0.406 | 1131.03 | 1.46672 | 1557.8
298.15 K, x2 = 0.4945 | 1144.21 | 1.45868 | 1560.6
298.15 K, x2 = 0.607 | 1159.22 | 1.44913 | 1563.2
298.15 K, x2 = 0.697 | 1170.1 | 1.44241 | 1564.4
298.15 K, x2 = 0.7828 | 1179.78 | – | 1565.8
298.15 K, x2 = 0.9104 | 1191.59 | 1.42725 | 1566.1
303.15 K, x2 = 0 | 1034.95 | 1.50886 | 1502.5
303.15 K, x2 = 0.1046 | 1065.76 | 1.49659 | 1519.9
303.15 K, x2 = 0.2035 | 1089.01 | 1.48494 | 1529.6
303.15 K, x2 = 0.3042 | 1109.53 | 1.4745 | 1537.2
303.15 K, x2 = 0.406 | 1127.12 | 1.4648 | 1543
303.15 K, x2 = 0.4945 | 1140.37 | 1.45699 | 1546.2
303.15 K, x2 = 0.607 | 1155.45 | 1.44651 | 1549.5
303.15 K, x2 = 0.697 | 1166.39 | 1.44097 | 1551.4
303.15 K, x2 = 0.7828 | 1176.14 | 1.43197 | 1553
303.15 K, x2 = 0.9104 | 1187.99 | 1.42592 | 1553.9
308.15 K, x2 = 0 | 1030.55 | 1.5065 | 1483.7
308.15 K, x2 = 0.1046 | 1061.54 | 1.49444 | 1502.4
308.15 K, x2 = 0.2035 | 1084.92 | 1.48295 | 1513
308.15 K, x2 = 0.3042 | 1105.54 | 1.47251 | 1521.5
308.15 K, x2 = 0.406 | 1123.22 | 1.46308 | 1528
308.15 K, x2 = 0.4945 | 1136.54 | 1.45534 | 1532.1
308.15 K, x2 = 0.607 | 1151.7 | 1.44502 | 1535.8
308.15 K, x2 = 0.697 | 1162.69 | 1.43944 | 1538.3
308.15 K, x2 = 0.7828 | 1172.5 | 1.43065 | 1540.6
308.15 K, x2 = 0.9104 | 1184.4 | 1.42459 | 1542.1
313.15 K, x2 = 0 | 1026.14 | 1.50415 | 1465
313.15 K, x2 = 0.1046 | 1057.33 | 1.49224 | 1485
313.15 K, x2 = 0.2035 | 1080.83 | 1.48108 | 1496.5
313.15 K, x2 = 0.3042 | 1101.56 | 1.47065 | 1505.9
313.15 K, x2 = 0.406 | 1119.32 | 1.46137 | 1513.2
313.15 K, x2 = 0.4945 | 1132.74 | 1.45369 | 1517.9
313.15 K, x2 = 0.607 | 1147.96 | 1.44349 | 1522.3
313.15 K, x2 = 0.697 | 1159.01 | 1.43784 | 1525.3
313.15 K, x2 = 0.7828 | 1168.89 | 1.42937 | 1528.1
313.15 K, x2 = 0.9104 | 1180.83 | 1.42327 | 1530.1
318.15 K, x2 = 0 | 1021.73 | 1.50181 | 1446.5
318.15 K, x2 = 0.1046 | 1053.13 | 1.49001 | 1467.7
318.15 K, x2 = 0.2035 | 1076.75 | 1.47899 | 1480.3
318.15 K, x2 = 0.3042 | 1097.59 | 1.46886 | 1490.4
318.15 K, x2 = 0.406 | 1115.44 | 1.45957 | 1498.5
318.15 K, x2 = 0.4945 | 1128.96 | 1.45198 | 1503.9
318.15 K, x2 = 0.607 | 1144.25 | 1.44199 | 1509
318.15 K, x2 = 0.697 | 1155.36 | 1.43632 | 1512.5
318.15 K, x2 = 0.7828 | 1165.3 | 1.42834 | 1515.7
318.15 K, x2 = 0.9104 | 1177.29 | 1.42194 | 1518.3
323.15 K, x2 = 0 | 1017.33 | 1.49948 | 1428.1
323.15 K, x2 = 0.1046 | 1048.93 | 1.4878 | 1450.6
323.15 K, x2 = 0.2035 | 1072.68 | 1.47691 | 1464.1
323.15 K, x2 = 0.3042 | 1093.63 | 1.46692 | 1475.1
323.15 K, x2 = 0.406 | 1111.58 | 1.45773 | 1483.9
323.15 K, x2 = 0.4945 | 1125.2 | 1.45015 | 1489.9
323.15 K, x2 = 0.607 | 1140.57 | 1.44042 | 1495.7
323.15 K, x2 = 0.697 | 1151.73 | 1.43462 | 1499.8
323.15 K, x2 = 0.7828 | 1161.76 | 1.42708 | 1503.5
323.15 K, x2 = 0.9104 | 1173.77 | 1.42061 | 1506.7
